Earlier results on one compound are cited in patent publication US8193226B2, “Candesartan cilexetil” (Zhejiang Huahai Pharmaceutical Co., Ltd., priority 2007, dated 2012).

Where two headings read alike, the source gives them in different places.

Assay in series [1]: not given
This is another data set of the same source.

Assay in series [2]: not given
This is another data set of the same source.

Usually bioavailability stands for the share of a dose that reaches the circulation, judged against a reference dose that is usually intravenous. Take `CCOc1nc2cccc(C(=O)OC(C)OC(=O)OC3CCCCC3)c2n1Cc1ccc(-c2ccccc2-c2nn[nH]n2)cc1` (stereo not drawn) [candesartan cilexetil]: under “alcoholic solvents”, the “solubility in alcoholic solvents” value was “readily soluble”. For the same compound, for the setting “water”, the solubility in water result was “practically insoluble”. Also, the bioavailability is 40% in series [1] (solution) and 15% in series [1] (tablet). Also, the “stability when processed into a tablet” value in series [2] (in the presence of other pharmaceutically acceptable additives, or at granulation or tableting) is “tends to decompose”. Also, the “stability of the drug as such” value in series [2] (isolated form, exposed to increased temperatures, humidity and light) is “stable”.
